Laboratory results: patent publication US9322034B2, “Compositions and methods for detecting and modulating cell death by a translation regulated gene expression system” (Wayne State University, priority 2007, dated 2016)

Key:
[1] = tested on: HEK293 cells expressing the TRplp-fLUC or TRdm-fLUC expression cassette; test: Cytotoxicity assay by Western blot, monocistronic TR-fLUC cassettes; format: cell-based, human
Method: For this example, expression and regulation of the TRplp-EYFP, TRdm-EYFP, TRplp-fLUC, or TRdm-fLUC expression cassettes in stably transformed HEK293 cells are validated using Western blot analysis. Cell lines or pools are grown in six-well trays or 60 mm dishes to about 60% confluence and treated with complete medium supplemented with a toxic chemical. […] Control samples are treated with fresh medium. Treated and control cells were removed by pipette, collected in media, pelleted for 5 min at 800 rpm (room temperature), and either stored at −70/−80° C. or immediately processed for total proteins.
For protein extraction, cells are resuspended in equal volumes of Suspension Buffer (100 mM NaCl, 10 mM Tris-HCl [pH 7.6], 1 mM EDTA, 1 mg/mL aprotinin, 100 μg/mL PMSF) and 2×SDS Buffer (100 mM Tris-HCl [pH 6.8], 4% SDS, 20% glycerol, 200 mM DTT). Frozen cells are thawed on ice prior to resuspension. The extracts are homogenized by several passages through a syringe fitted with a 26 G needle. Samples are subsequently incubated at RT for 1-2 hr. Samples are transferred to −70/−80° C. for storage or applied to an SDS PAGE gel and examined by Western blot analysis.
To insure equal protein loading levels on Western blots, 10 μL of each protein extract are initially resolved by SDS PAGE, fixed overnight in Preblot gel fixer (25% isopropanol, 10% acetic acid), and stained in 0.05% Coomassie blue (0.05% brilliant blue R, 50% methanol, 10% acetic acid) for 20 min, RT. Gels are destained in 10% acetic acid and dried under vacuum. Using the dried gels, any necessary volume adjustment was made to samples prior to Western blotting.
Western blot analysis is a well established technique in the art and is summarized in the following. Following SDS PAGE gel resolution and protein transfer to a solid membrane support by electrophoresis, the membranes are dried overnight. […] Similarly, fLUC protein is detected using an anti-fLUC antibody (Sigma; 1:1000 dilution). After incubation with a primary antibody and extensive washing (1×PBS-T), proteins binding the primary antibody are detected by incubation with a horseradish peroxidase (HRP) conjugated anti-rabbit or anti-mouse antibody (Amersham; 1:5000 to 1:10000 dilution). Following incubation with the secondary antibody and extensive washing, reactive proteins are detected with the ECL reagent system (Amersham) as described by the vendor.
Following treatment with toxic levels of the calcium ionophore A23187, highly significant increases in fLuc protein levels are observed in the stressed and dying cells that were not evident in untreated cultures. Individual protein bands are quantitated by densitometry on a Beckman DU7400 spectrophotometer.

[2] = tested on: HEK293 TRplp-fLUC and TRdm-fLUC subclones; test: Cytotoxicity assay by immunofluorescence of fLUC protein; format: cell-based, human; conditions: 12 hr
Source text: To examine TR-mediated translation from the TR-fLUC cassettes, the translated fLUC protein requires immunolabeling with fluorescent antibodies. In this study, HEK293 cells transformed with the CMV-fLUC, TRplp-fLUC or TRdm-fLUC expression cassettes are visualized following immunodetection of the fLUC protein using a primary anti-fLUC antibody (Sigma) and a species-specific rhodamine-labeled secondary antibody (Kirkegaard and Perry Laboratories, Inc.). DAPI labeling of nuclear DNA is a well known procedure in the art and was used to label nuclei.
Forty hours prior to toxin exposure, 300,000 cells (HEK293, HEK293 CMV-fLUC, HEK293 TRplp-fLUC subclone #3, HEK293 TRplp-fLUC subclone #17, HEK293 TRdm-fLUC subclone #12, or HEK293 TRdm, fLUC subclone #45) were plated on flame sterilized glass coverslips in a 12-well tray. Cells are cultured in complete DMEM medium. Fresh medium supplemented with 6.7 micromolar calcium ionophore A23187 is applied and slides collected at 12 hr. […] After this, the coverslips are washed in 1×PBS, labeled with DAPI (30 sec, RT), washed in 1×PBS, and mounted for fluorescence microscopy.
In untreated cell cultures, the frequency of fLUC-positive cells ranged from 2.4-7.2%, which is 1-3 times higher than the normal frequency of nonviable cells, as determined by Trypan blue staining. […]

## CNc1ccc2oc(C[C@H]3O[C@@]4(CC[C@H]3C)O[C@H]([C@H](C)C(=O)c3ccc[nH]3)[C@H](C)C[C@H]4C)nc2c1C(=O)O [calcium ionophore A23187]
[1]; HEK293 TRdm-fLuc cells, n=6
  average increase in fLuc protein levels in stressed and dying cells: 524.3%
[1]; HEK293 TRplp-fLuc expressing cells, n=5
  average increase in fLuc protein levels in stressed and dying cells: 402.8%
[1]; cell pools and lines, toxic levels (5-6.7 micromolar), densitometry of Western blot
  increases in fLUC protein levels, % of the protein levels detected in untreated TRplp-fLUC/TRdm-fLUC cells: 160-800%
[1]; toxin-treated cells, FIG. 6
  fLUC protein levels in stressed and dying TR-fLUC cells, % of the protein levels of cells expressing cap-dependent CMV-fLuc: ≤ 110%
[2]; HEK293 TRdm-fLUC subclone #12, 6.7 micromolar
  increase in number of fLUC positive cells compared to untreated samples: 3640%
[2]; HEK293 TRdm-fLUC subclone #45, 6.7 micromolar
  increase in number of fLUC positive cells compared to untreated samples: 1440%
